Source: patent publication US11980633B2, “Method for treating cancer using a combination of DNA-damaging agents and DNA-PK inhibitors” (Vertex Pharmaceuticals Incorporated, priority 2016, dated 2024)

System: pKAP1 and pH2AX levels in DU4475 breast cancer cells
Assay: pKAP1 and pH2AX immunoblot, Compound B-2 and doxorubicin in DU4475 breast cancer cells
Type: cell-based, human
Settings: for pH2AX level, max enhancement vs doxorubicin alone: at 12 h
Protocol: Materials and Methods. The human cancer cell lines A549 (CCL-185), DU4475 (HTB-123), MDA-MB-436 (HTB-130), and MDA-MB-468 (HTB-132) were obtained from American Type Culture Collection (ATCC; Manassas, VA). A 10 mM stock solution of Compound B-1 or Compound B-2 was prepared in DMSO and stored at −20° C. Etoposide and doxorubicin were purchased from Sigma-Aldrich (St. Louis, MO).
The A549 human lung cancer cell line was purchased from ATCC and was cultured in DMEM supplemented with 10% fetal bovine serum, 1× non-essential amino acids and 1× Penicillin/Streptomycin (complete medium). Cells were maintained at a subconfluent state by passaging every 2-3 days. Human breast cancer cells lines DU4475, MDA-MB-436, and MDA-MB-468 were purchased from ATCC and cultured in DMEM supplemented with 10% fetal bovine serum, 1× Glutamax and Penicillin/Streptomycin. Cells were maintained at a subconfluent state by passaging every 2-3 days.
Compound B-1 and Compound B-2 used in these experiments were not prepared as a co-crystals.
Breast cancer cell lines grown in 24-well (Costar, catalog #3526) or 6-well (Costar, catalog #3516) tissue culture plates to 70-80% confluence were pre-incubated with 1 μM Compound B-2 or DMSO for 15 min. Doxorubicin was added to a final concentration of either 100 nM or 500 nM from a 1000× stock prepared in DMSO. Cells were then incubated for the indicated amount of time and harvested for analysis.
Cell Lysis and Western Blot Analysis. Cells treated with Compound B-1 or Compound B-2 in combination with chemotherapeutic agents were washed once with ice-cold PBS and then dissolved in 150 μL/well 2×SDS-PAGE sample buffer, transferred to microfuge tubes, and heated in a 105° C. heat block for 5 min for immunoblotting. A 15-μL aliquot of each SDS-PAGE sample was loaded onto 12-lane 4 20% Tris-Glycine gels and the gels were run at 125v constant voltage until the dye front reached the bottom (approximately 2 h). Following electrophoresis, separated proteins in the gels were transferred to a nitrocellulose membrane. Transfer was carried out for 2 h at 1.5 A constant current in a cold room using a Hoefer transfer apparatus (Model TE42 or TE62, Hoefer Inc, Holliston, MA) according to manufacturer's instructions. Following transfer, nitrocellulose membranes were incubated with blocking buffer for 1 h at room temperature. The nitrocellulose membranes were cut and the bottom halves were incubated overnight with 2 primary antibodies, anti-pH2AX (1/1000) and anti-total H2AX (1/1000). After washing, the appropriate fluorescently labeled secondary antibodies were added to the membranes and then imaged with pH2AX on the 800 (green) channel and total H2AX on the 700 (red) channel. The top halves of the membranes were probed sequentially for pKAP1 (1/1000) on the 700 (red) channel and then probed for total KAP1 (1/1000) and GAPDH (1/2500) on the 800 (green) channel. Image acquisition was conducted using an Odyssey fluorescent imaging system (Li-Cor Biosciences; Lincoln, NE).
Compound B-2 and doxorubicin combination in breast cancer cell lines in culture. To examine the effect of DNA-PK inhibition on pKAP1 and pH2AX in vitro, DU4475 breast cancer cells were pre-incubated with 1 μM Compound B-2 for 15 min, followed by addition of 100 nM or 500 nM doxorubicin. Cells were harvested at various time points following doxorubicin addition and analyzed for levels of pKAP1 and pH2AX by immunoblotting.

## [2H]c1nc(C)nc([2H])c1-c1cc(NC[C@@H](C)c2cccc3c(C(=O)NC)ccnc23)ncn1 [Compound B-2]
1 μM Compound B-2 + 100 nM doxorubicin, at 12-24 h
  pKAP1 level, max enhancement vs doxorubicin alone: 37-42 fold
1 μM Compound B-2 + 100 nM doxorubicin
  pH2AX level, max enhancement vs doxorubicin alone: 2 fold
1 μM Compound B-2 + 500 nM doxorubicin, at 8 h
  pKAP1 level, max enhancement vs doxorubicin alone: 19 fold
1 μM Compound B-2 + 500 nM doxorubicin
  pH2AX level, max enhancement vs doxorubicin alone: 1.6 fold
